Measurements taken from ChEMBL document CHEMBL1201862, “PubChem BioAssay data set” (2004).
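Method: 48-hour compound exposure of cells in 96-well plates, five concentrations, linear interpolation of endpoints. At the GI50, growth is halved.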 Activity calls are given as the source filed them. Rule as the data show it: active = GI50 up to about 1.1 µM and inactive = higher.

Columns and labels:
Assay in all cases: NCI anticancer screen, dose series, 48 h
OVCAR-3 = system: OVCAR-3
SK-MEL-2 = system: SK-MEL-2
DMS-273 = system: DMS-273
NCI-H23 = system: NCI-H23
Malme-3M = system: Malme-3M
MCF7 = system: MCF7
A549 = system: A549
UO-31 = system: UO-31
CCRF-CEM = system: CCRF-CEM
COLO 205 = system: COLO 205
XF498 = system: XF498
NCI-H226 = system: NCI-H226
CAKI-1 = system: CAKI-1
DMS-114 = system: DMS-114
KM-20L2 = system: KM-20L2
SF-295 = system: SF-295
SK-MEL-28 = system: SK-MEL-28
EKVX = system: EKVX
SK-OV-3 = system: SK-OV-3

Row | Compound | GI50 (OVCAR-3) | GI50 (SK-MEL-2) | GI50 (DMS-273) | GI50 (NCI-H23) | GI50 (Malme-3M) | GI50 (MCF7) | GI50 (A549) | GI50 (UO-31) | GI50 (CCRF-CEM) | GI50 (COLO 205) | GI50 (XF498) | GI50 (NCI-H226) | GI50 (CAKI-1) | GI50 (DMS-114) | GI50 (KM-20L2) | GI50 (SF-295) | GI50 (SK-MEL-28) | GI50 (EKVX) | GI50 (SK-OV-3)
1 | O=Cc1c(Cn2ccnc2)c2cc([N+](=O)[O-])ccc2n1Cc1ccccc1 | > 100 µM (inactive) | > 100 µM (inactive) | > 100 µM (inactive) | > 100 µM (inactive) | > 100 µM (inactive) | 75.3 µM (inactive) | 51.9 µM (inactive) | > 60.1 µM (inactive) | 63.5 µM (inactive) | > 100 µM (inactive) | > 100 µM (inactive) | > 100 µM (inactive) | > 68.4 µM (inactive) | > 100 µM (inactive) | 89.9 µM (inactive) | 36.8 µM (inactive) | > 100 µM (inactive) | > 100 µM (inactive) | > 100 µM (inactive)
2 | O=C(O)c1cn2c3c(cc(N4CCN(CCO)CC4)cc3c1=O)SCC2 | 58.6 µM (inactive) | 48.4 µM (inactive) | > 100 µM (inactive) | 57.5 µM (inactive) | 37.2 µM (inactive) | 29.7 µM (inactive) | > 100 µM (inactive) | > 100 µM (inactive) | 48.8 µM (inactive) | > 100 µM (inactive) | 23.2 µM (inactive) | 63.8 µM (inactive) | > 100 µM (inactive) | 51.3 µM (inactive) | > 100 µM (inactive) | > 100 µM (inactive) | > 100 µM (inactive) | > 100 µM (inactive) | > 100 µM (inactive)
3 | COC(=O)C1C(O)C(C)C(O)OC1C(C)C(O)C(C)/C=C\C=C(/C)C(=O)Nc1c(C)c(OC(C)=O)c2c(c1O)C(=O)C(C)=C1OCOC(/C(C)=C/C(C)=O)=C12 (stereo unspecified) | 9.38 µM (inactive) | 12.6 µM (inactive) | 13.3 µM (inactive) | 14.2 µM (inactive) | 13.5 µM (inactive) | 13.9 µM (inactive) | 15.1 µM (inactive) | 16.4 µM (inactive) | 5.96 µM (inactive) | 8.99 µM (inactive) | 13.8 µM (inactive) | 12.4 µM (inactive) | 17.6 µM (inactive) | 10.1 µM (inactive) | 12.9 µM (inactive) | 14.9 µM (inactive) | 2.99 µM (inactive) | 11.9 µM (inactive) | 20 µM (inactive)
4 | CC[C@@]1(O)C[C@H](OC2CC(N(C)C)C(O)C(C)O2)c2c(cc3c(c2O)C(=O)c2c(O)ccc(O)c2C3=O)[C@H]1C(=O)OC (stereo partly specified) | 0.149 µM (active) | 0.101 µM (active) | 0.0213 µM (active) | 0.11 µM (active) | 0.0807 µM (active) | 0.0885 µM (active) | 0.0365 µM (active) | 0.158 µM (active) | 0.0242 µM (active) | 0.0467 µM (active) | 0.106 µM (active) | 0.108 µM (active) | 0.027 µM (active) | 0.119 µM (active) | 0.0702 µM (active) | 0.032 µM (active) | 0.148 µM (active) | 0.135 µM (active) | 0.236 µM (active)
